Measurements published in ChEMBL document CHEMBL1201862, “PubChem BioAssay data set” (2004).
Values belong to the compound of their own block, whether it stands above or below them. The source made the active and inactive calls.

Tests used:
[1] = molecular target: Glyceraldehyde-3-phosphate dehydrogenase (Homo sapiens, UniProt P04406)
[2] = molecular target: T1, Bcl-2-related protein A1 (Mus musculus, UniProt Q07440); assay: Bfl-1 inhibitors blocking BH3 peptide binding, confirmation, biochemical, TR-FRET, mouse Bfl-1 (AID 621);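 note: TR-FRET binding of GST-Bfl-1 to FITC-labelled Bid peptide via terbium antibody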
T1 sequence (Q07440 whole entry): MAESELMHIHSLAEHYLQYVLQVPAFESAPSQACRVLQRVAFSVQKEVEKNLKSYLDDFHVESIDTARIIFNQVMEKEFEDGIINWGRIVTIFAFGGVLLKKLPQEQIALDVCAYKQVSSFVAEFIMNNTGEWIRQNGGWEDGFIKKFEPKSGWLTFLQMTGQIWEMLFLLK

[3] = molecular target: T1, Bcl-2-related protein A1; assay: Bfl-1 binding inhibitors, SAR follow-up, biochemical, fluorescence polarization (AID 1070)
[4] = Luminescence Cell-Based Dose Confirmation HTS to Identify Inhibitors of Platelet Dense Granule Release. [Related pubchem assays: 1663 (Primary HTS), 1678 (Summary of Project)]; type: functional
[5] = molecular target: T2, Heat shock factor protein 1 (Mus musculus, UniProt P38532); assay: HSF1 potentiators in luciferase reporter cells, confirmation, cell-based, NIH3T3, luminescence, dose retest (AID 435004); type: functional;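 note: stress induced by proteasome inhibitor MG132 added 30 min after compound; luciferase reporter driven by HSF1 response element in NIH3T3 cells; actives raise luminescence as potentiators of the MG132 stress response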
T2 sequence (P38532 whole entry): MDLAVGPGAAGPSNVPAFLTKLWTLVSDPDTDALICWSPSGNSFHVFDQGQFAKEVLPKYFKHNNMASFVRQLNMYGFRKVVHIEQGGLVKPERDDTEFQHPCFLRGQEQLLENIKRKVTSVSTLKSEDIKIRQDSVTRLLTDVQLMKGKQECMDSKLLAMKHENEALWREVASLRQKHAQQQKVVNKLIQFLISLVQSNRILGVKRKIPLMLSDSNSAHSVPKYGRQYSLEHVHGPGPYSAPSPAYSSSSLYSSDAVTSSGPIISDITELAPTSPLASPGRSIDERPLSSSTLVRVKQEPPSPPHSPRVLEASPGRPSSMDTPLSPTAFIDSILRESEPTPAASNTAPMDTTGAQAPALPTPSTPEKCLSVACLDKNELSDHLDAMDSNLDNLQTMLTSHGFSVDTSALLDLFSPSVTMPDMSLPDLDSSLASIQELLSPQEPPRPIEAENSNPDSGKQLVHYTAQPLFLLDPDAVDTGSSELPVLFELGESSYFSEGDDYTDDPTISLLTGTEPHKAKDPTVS

[6] = Fluorescence Cell-Based Dose Response to Identify Inhibitors of Thrombin Receptor-Activating Peptide SFLLRN-Mediated P-Selectin Induction on Platelets. [Related pubchem assays: 1663 (Primary HTS), 1889 (retest at dose ), 1891 (counterscreen), 1678 (Project Summary)]; type: functional
[7] = Fluorescence-based cell-based high throughput dose response assay for inhibitors of the interaction of nucleotide-binding oligomerization domain containing 2 (NOD2) and the receptor-interacting serine-threonine kinase 2 (RIPK2).; type: functional; conditions: Homo sapiens
[8] = molecular target: Beta Lactamase (Pseudomonas aeruginosa, UniProt Q932Y6); assay: beta-lactamase reporter inhibitor potency, dose response, artefact control for NOD2-RIPK2 interaction inhibitor project, BLA reporter cells, FRET fluorescence (AID 651552); type: functional, cell-based
Beta Lactamase, sequence (Q932Y6 whole entry): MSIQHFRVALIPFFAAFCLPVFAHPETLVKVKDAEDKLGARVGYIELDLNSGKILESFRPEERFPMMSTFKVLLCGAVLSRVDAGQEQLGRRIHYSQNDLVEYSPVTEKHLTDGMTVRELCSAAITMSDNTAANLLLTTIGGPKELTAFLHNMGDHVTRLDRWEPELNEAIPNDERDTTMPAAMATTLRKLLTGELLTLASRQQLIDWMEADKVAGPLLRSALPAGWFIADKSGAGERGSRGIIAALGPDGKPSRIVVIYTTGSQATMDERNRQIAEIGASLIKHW

[9] = molecular target: Luciferin 4-monooxygenase (Photinus pyralis, UniProt P08659); assay: firefly luciferase enzyme inhibitors, dose response, biochemical, luminescence (AID 1891)
Luciferin 4-monooxygenase, sequence (P08659 whole entry): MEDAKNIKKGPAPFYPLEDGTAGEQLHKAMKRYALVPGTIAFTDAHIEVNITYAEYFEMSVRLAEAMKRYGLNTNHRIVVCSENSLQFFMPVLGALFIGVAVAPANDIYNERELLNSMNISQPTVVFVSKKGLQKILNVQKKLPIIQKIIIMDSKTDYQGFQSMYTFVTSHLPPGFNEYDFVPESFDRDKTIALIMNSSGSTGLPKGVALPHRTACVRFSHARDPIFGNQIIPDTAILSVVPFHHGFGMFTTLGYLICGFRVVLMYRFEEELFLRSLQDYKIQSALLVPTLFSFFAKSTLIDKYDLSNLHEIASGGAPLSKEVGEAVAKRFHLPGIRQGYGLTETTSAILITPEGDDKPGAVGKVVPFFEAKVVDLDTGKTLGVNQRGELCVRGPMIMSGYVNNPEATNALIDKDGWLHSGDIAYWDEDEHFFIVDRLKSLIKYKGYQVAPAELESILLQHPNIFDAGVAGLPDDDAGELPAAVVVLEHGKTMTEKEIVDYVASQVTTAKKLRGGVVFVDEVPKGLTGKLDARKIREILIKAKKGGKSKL

[10] = molecular target: Beta-galactosidase (Escherichia coli, UniProt Q8VNN2); assay: beta-galactosidase enzyme inhibitors and activators, dose response, artefact control for CCR6 antagonist project, biochemical, E. coli enzyme, set 3 (AID 504712); type: functional
Beta-galactosidase, sequence (Q8VNN2 whole entry): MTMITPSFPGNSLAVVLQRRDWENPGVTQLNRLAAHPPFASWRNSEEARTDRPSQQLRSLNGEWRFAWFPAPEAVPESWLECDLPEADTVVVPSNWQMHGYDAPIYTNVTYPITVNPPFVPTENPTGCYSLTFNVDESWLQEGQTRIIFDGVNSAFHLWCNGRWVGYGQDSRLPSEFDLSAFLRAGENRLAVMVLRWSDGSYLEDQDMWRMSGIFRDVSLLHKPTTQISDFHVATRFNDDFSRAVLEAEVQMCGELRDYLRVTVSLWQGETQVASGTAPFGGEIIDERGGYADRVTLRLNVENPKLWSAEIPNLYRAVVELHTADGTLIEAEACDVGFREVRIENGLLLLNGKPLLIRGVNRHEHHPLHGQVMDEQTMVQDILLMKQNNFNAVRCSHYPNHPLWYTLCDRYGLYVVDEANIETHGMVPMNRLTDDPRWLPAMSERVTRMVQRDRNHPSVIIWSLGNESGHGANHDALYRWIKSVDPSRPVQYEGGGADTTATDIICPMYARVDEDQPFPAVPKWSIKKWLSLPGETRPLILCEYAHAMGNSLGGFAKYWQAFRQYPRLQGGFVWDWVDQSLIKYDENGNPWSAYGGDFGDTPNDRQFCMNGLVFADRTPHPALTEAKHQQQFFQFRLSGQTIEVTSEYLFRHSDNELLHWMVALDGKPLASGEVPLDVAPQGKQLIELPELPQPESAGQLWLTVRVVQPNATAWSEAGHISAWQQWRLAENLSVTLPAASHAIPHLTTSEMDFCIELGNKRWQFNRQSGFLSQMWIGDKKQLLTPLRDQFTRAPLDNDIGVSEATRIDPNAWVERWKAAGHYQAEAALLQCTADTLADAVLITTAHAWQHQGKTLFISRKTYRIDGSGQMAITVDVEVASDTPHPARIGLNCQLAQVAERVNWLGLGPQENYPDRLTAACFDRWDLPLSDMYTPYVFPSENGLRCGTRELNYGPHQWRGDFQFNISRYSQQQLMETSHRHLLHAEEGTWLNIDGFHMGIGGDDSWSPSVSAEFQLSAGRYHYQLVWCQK

[11] = molecular target: Cytochrome P450 2C19 (Homo sapiens, UniProt P33261); assay: qHTS Assay for Inhibitors and Substrates of Cytochrome P450 2C19. [Related pubchem assays: 410 ]; type: ADME; conditions: read-out: Potency
Cytochrome P450 2C19, sequence (P33261 whole entry): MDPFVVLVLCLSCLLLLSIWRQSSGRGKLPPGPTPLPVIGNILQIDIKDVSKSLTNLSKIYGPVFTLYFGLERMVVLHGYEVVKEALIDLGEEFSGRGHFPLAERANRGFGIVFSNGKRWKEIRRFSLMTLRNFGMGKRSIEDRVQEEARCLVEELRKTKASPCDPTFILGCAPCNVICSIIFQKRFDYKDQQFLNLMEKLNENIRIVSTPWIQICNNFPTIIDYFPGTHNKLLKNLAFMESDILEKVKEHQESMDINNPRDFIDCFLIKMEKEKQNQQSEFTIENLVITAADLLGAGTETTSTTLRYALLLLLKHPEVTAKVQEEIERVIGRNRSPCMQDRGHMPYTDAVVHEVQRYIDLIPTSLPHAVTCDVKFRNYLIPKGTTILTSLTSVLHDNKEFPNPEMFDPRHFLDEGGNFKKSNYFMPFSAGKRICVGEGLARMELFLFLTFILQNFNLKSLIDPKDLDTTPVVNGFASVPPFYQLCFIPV

[12] = molecular target: Cytochrome P450 2C9 (Homo sapiens, UniProt P11712); conditions: Potency
Cytochrome P450 2C9, sequence (P11712 whole entry): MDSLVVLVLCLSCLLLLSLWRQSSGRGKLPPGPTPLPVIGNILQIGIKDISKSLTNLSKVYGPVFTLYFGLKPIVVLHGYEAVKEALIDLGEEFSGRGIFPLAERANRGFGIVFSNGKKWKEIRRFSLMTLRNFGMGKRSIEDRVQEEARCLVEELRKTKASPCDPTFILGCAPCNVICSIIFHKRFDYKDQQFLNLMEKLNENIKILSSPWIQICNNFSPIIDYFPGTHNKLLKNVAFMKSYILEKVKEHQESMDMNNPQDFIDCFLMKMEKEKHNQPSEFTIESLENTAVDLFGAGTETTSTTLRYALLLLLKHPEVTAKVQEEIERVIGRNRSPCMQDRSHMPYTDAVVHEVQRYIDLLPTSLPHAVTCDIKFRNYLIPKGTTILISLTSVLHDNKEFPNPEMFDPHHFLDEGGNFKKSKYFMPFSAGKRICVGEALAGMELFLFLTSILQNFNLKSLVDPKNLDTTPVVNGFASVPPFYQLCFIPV

[13] = molecular target: Procathepsin L (Homo sapiens, UniProt P07711); assay: cathepsin L inhibitors, dose response, counter-screen for M1/M17 aminopeptidase inhibitor project, biochemical, QFRET, 1536-well (AID 2214)
Procathepsin L, sequence (P07711 whole entry): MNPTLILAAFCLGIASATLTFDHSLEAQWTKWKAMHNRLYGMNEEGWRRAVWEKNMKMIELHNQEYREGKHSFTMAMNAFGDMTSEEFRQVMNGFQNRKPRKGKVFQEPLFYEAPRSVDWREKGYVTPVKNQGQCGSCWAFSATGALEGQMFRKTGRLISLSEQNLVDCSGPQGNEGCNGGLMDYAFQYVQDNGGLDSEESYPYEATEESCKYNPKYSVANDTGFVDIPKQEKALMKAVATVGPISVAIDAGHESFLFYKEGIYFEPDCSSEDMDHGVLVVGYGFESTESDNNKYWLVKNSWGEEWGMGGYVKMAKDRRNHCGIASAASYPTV

[14] = molecular target: T3, Aminopeptidase N (Plasmodium falciparum FcB1/Columbia, UniProt O96935); assay: P. falciparum M1AAP inhibitors, biochemical, fluorogenic H-Leu-NHMec substrate, 1536-well (AID 1445); design: species or system Plasmodium falciparum 3D7, 3D7
T3 sequence (O96935 whole entry): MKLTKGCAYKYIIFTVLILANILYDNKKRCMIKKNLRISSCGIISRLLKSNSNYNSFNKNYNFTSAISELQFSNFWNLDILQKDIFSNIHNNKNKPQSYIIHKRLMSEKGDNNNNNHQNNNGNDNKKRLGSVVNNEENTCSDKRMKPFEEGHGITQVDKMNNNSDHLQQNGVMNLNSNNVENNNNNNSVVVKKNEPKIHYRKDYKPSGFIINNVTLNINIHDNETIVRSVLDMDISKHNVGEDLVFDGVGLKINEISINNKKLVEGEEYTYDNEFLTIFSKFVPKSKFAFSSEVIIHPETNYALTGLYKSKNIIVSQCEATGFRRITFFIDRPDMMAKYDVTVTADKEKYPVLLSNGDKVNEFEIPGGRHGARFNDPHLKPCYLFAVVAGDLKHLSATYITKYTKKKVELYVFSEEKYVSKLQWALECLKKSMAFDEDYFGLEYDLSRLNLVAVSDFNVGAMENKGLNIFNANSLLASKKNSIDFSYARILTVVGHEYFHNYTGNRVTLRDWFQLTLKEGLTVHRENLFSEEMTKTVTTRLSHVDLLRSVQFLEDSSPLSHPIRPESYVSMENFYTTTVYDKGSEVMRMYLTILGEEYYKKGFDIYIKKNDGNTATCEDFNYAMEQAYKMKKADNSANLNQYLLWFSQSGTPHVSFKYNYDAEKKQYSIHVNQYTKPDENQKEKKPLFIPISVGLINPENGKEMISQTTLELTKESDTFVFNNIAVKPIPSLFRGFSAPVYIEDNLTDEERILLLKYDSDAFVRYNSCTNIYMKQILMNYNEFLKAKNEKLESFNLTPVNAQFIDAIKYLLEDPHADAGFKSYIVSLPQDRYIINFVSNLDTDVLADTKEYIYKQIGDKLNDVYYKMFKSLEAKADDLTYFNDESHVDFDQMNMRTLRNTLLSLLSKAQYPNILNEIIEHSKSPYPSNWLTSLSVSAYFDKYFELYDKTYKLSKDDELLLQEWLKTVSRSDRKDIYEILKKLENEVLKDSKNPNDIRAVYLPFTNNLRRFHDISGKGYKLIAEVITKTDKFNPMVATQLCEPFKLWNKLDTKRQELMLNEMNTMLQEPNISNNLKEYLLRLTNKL

[15] = molecular target: Aspartyl aminopeptidase (Plasmodium falciparum 3D7, UniProt Q8I2J3); assay: Counterscreen for inhibitors of M1 and M17 aminopeptidases: QFRET-based biochemical high throughput dose response assay for inhibitors of the Plasmodium falciparum M18 Aspartyl Aminopeptidase (PFM18AAP). [Related PubChem assays: 1619 (Screening assay (M17LAP inhibitors).), 1445 (Screening assay (M1AAP inhibitors).)]
Aspartyl aminopeptidase, sequence (Q8I2J3 whole entry): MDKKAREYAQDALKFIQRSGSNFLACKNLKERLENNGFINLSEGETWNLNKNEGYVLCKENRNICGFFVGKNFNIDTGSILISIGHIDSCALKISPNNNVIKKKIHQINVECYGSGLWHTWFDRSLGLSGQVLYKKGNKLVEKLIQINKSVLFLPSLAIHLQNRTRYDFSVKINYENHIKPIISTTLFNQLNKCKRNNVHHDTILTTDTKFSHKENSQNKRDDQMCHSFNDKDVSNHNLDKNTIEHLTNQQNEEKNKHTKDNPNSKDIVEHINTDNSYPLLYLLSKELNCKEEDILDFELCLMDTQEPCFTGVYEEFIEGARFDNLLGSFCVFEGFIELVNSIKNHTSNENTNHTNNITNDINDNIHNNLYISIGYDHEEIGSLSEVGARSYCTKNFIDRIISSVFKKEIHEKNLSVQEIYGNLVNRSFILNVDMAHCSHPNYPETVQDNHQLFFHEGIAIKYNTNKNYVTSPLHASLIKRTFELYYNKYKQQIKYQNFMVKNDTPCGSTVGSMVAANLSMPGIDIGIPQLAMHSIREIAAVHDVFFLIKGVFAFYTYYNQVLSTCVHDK

Glyceraldehyde-3-phosphate dehydrogenase, sequence (P04406 whole entry): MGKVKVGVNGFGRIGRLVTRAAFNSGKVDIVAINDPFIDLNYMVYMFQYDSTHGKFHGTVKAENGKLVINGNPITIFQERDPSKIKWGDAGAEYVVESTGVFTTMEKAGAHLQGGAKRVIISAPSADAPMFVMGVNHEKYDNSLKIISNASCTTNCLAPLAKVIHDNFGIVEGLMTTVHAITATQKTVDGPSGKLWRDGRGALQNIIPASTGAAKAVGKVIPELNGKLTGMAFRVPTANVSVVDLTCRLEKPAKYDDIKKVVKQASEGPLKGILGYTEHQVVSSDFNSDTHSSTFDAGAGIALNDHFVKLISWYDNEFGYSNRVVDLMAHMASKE

IC50 [1]: > 100 µM (not active)
IC50 [2]: > 100 µM (not active)
IC50 [3]: > 100 µM (not active)
Structure (SMILES): O=C1C(Cl)=C(N2CCN(c3cccc(C(F)(F)F)c3)CC2)C(=O)N1c1ccc(Cl)c(Cl)c1

Structure (SMILES): Cc1ccc(NN2C(=O)C=C(c3ccccc3)C2=O)cc1
EC50 [4]: 5.06 µM (active)
EC50 [5]: 10.5 µM (active)
EC50 [6]: < 30 µM (active)
IC50 [7]: 1.72 µM (active)
IC50 [8]: 28.7 µM (inactive)
EC50 [9]: > 112 µM (not active)
IC50 [10]: > 66.6 µM (inactive)

AC50 [11]: 31.6 µM (inconclusive)
AC50 [12]: 31.6 µM (inconclusive)
Structure (SMILES): COc1ccc(C(=O)[C@H]2[C@H]3[C@@H](C(=O)[C@@H]4OC[C@H]3O4)[C@H]3C=Cc4ccccc4N32)c(OC)c1

IC50 [13]: > 59.6 µM (not active)
IC50 [14]: 18.6 µM (active)
IC50 [15]: > 73.5 µM (not active)
Structure (SMILES): O=C(NCc1ccco1)C1CCCN(S(=O)(=O)c2cccc3nonc23)C1 (stereo not given)
